In patent US20120029071A1, “COMPOSITIONS AND METHODS FOR TREATING OR PREVENTING RADIATION INJURY” (THE JOHNS HOPKINS UNIVERSITY, priority 2008, published 2012):
Entries after “also recorded” stand apart in the source; their conditions may differ.

What was measured:
Nrf2+/+ mice = assay: TBI induced mortality in Nrf2+/+ mice after CDDO-Me treatment; format: in vivo; conditions: for mortality: survival monitored for 30 days, vehicle 100% mortality
Method: (§1) FIG. 2 includes three graphs, which provide proof of concept studies with Nrf2 activator, showing quantitation of TBI induced Mortality in Nrf2−/− mice and Nrf2+/+ mice after CDDO-me (small molecule Nrf2 activator) or vehicle treatment. One hour and 24 hours after TBI mice (n=10/gp) mice were treated with CDDO-Me. Survival was monitored for 30 days.
(§2) To determine if pharmacological activation of Nrf2 improves survival following TBI, we treated Nrf2+/+ and Nrf2−/− with the small molecule, CDDO-Me, a potent Nrf2 activator 1 hour and 24 hours after TBI.

Nrf2−/− mice = assay: TBI induced mortality in Nrf2-/- mice after CDDO-Me treatment; format: in vivo; conditions: treated 1 hour post-TBI
Method: as §1, §2

mice = assay: TBI induced gastrointestinal (GI) injury: villi morphology and crypt cell proliferation (BrdU); format: in vivo; conditions: treatment post 1 h TBI, day 9 post TBI, vs vehicle; for mucosal injury (length of villi): histopathology
Method: FIGS. 3A-3D show TBI induced GI injury in Nrf2+/+ and Nrf2−/− mice after CDDO-me or vehicle treatment. One hour after TBI […] mice (n=10/gp) mice were treated with CDDO-Me. GI injury was assessed by mucosal damage by histopathalogical analysis (FIGS. 3A and 3B) and crypt cell proliferation by BrdU immunohistochemistry staining (FIGS. 3C and 3D).
To analyze the GI injury, villi morphology and proliferation of crypt cells were quantified by immunohistochemistry and BrdU labeling on day 9 post TBI.

[1] = tested on: hematopoietic stem cells and progenitors cell; assay: TBI induced hematopoietic injury, bone marrow clonogenic assay; format: in vivo, mice; conditions: bone marrow clonogenic assay after TBI, vs vehicle
Method: FIG. 4 is a graph quantitating TBI induced HP injury in mice after CDDO-me or vehicle treatment as assessed by bone marrow clonogenic assay.
To assess the protective effect of CDDO-Me on hematopoietic injury, bone marrow was analyzed in a clonogenic assay.

[2] = tested on: GCLC, GCLm and NQO1 genes; assay: Expression of Nrf2 regulated antioxidant genes in multiple tissues post TBI by quantitative RT-PCR; format: in vivo, mice; conditions: small intestine, colon, lung, liver, kidney, salivary gland and other organs
Source text: FIG. 5 is a table that quantifies Nrf2 regulated antioxidant defenses in multiple tissues of mice treated with CDDO-Me post TBI.

SMILES: COC(=O)[C@]12CCC(C)(C)C[C@H]1[C@H]1C(=O)C=C3[C@@]4(C)C=C(C#N)C(=O)C(C)(C)[C@@H]4CC[C@@]3(C)[C@]1(C)CC2 [CDDO-Me]
- TBI induced mortality (Nrf2+/+ mice; treated 1 hour and 24 hours after TBI, vs vehicle): markedly inhibited TBI induced mortality
- mortality (Nrf2+/+ mice; treated 1 hour post-TBI): 0%
- mortality (Nrf2+/+ mice; treated 24 hours post-TBI): 25%
- survival following TBI (Nrf2−/− mice): failed to improve survival
- crypt cell proliferation (BrdU staining) (mice; BrdU immunohistochemistry): significantly mitigated loss of crypt cells; also recorded: marked improvement in crypt cell proliferation
- mucosal injury (length of villi) (mice): significantly mitigated reduction in gastrointestinal villi
- mucosal injury (length of villi) (mice; listed as CDDO-me): markedly ameliorated mucosal injury
- protection of hematopoietic stem cells and progenitors (granulocyte/macrophage colony forming cells) [1]: markedly protected hematopoietic stem cells and progenitors cell
- expression of antioxidant genes (GCLC, GCLm, NQO1) [2]: markedly upregulated antioxidant genes
